This passage reports IC50, EC50 and AC50 results from ChEMBL document CHEMBL1201862, “PubChem BioAssay data set” (2004).

Molecules are shown by their SMILES. Activity calls are given as the source filed them. Cut-off read from the data, not from the text of the source, for most assays here: active = IC50 of 10 µM or less and inactive = more.

In assay [1] the target is T1, DNA dC->dU-editing enzyme APOBEC-3A (Homo sapiens, UniProt P31941). The assay can be described thus: SAR analysis of small molecule inhibitors of APOBEC3A DNA Deaminase via a fluorescence-based single-stranded DNA deaminase assay. The note with it: read-out: IC50_Mean. It is filed as functional.
T1 sequence (P31941 whole entry): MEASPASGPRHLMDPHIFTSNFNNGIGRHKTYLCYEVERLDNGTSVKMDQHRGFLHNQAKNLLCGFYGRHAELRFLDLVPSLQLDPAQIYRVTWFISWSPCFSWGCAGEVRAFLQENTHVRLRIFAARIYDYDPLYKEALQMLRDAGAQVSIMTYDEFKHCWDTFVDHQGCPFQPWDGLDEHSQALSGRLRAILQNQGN
For assay [2], the target named is T1, DNA dC->dU-editing enzyme APOBEC-3A. The assay can be described thus: SAR analysis of small molecule inhibitors of APOBEC3A DNA Deaminase via a fluorescence-based single-stranded DNA deaminase assay - Set 2. The note with it: read-out: IC50_Mean. It is filed as functional.
For assay [3], the target named is T2, DNA dC->dU-editing enzyme APOBEC-3G (Homo sapiens, UniProt Q9HC16). The assay can be described thus: APOBEC3G deaminase inhibitors, SAR follow-up, biochemical, fluorescence, single-stranded DNA substrate (AID 602136). Type of assay: functional. To be noted: read-out: IC50_Mean.
T2 sequence (Q9HC16 whole entry): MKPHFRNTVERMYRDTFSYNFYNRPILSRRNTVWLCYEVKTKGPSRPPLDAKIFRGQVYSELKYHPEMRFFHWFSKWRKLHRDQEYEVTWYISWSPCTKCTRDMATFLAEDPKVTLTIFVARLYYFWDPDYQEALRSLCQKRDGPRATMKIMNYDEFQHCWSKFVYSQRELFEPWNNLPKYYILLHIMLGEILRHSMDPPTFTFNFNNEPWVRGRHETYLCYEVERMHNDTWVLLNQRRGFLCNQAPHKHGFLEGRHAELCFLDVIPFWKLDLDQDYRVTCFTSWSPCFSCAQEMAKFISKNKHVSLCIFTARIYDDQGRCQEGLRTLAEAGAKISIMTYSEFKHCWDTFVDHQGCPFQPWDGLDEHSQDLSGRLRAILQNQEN
Assay [4] has as its target T2, DNA dC->dU-editing enzyme APOBEC-3G. The assay is described as follows: SAR analysis of small molecule inhibitors of APOBEC3G DNA Deaminase via a fluorescence-based single-stranded DNA deaminase assay - Set 2. It is filed as functional. The note with it: read-out: IC50_Mean.
Assay [5] deals with T3, Apoptotic protease-activating factor 1 (Homo sapiens, UniProt O14727).
T3 sequence (O14727 whole entry): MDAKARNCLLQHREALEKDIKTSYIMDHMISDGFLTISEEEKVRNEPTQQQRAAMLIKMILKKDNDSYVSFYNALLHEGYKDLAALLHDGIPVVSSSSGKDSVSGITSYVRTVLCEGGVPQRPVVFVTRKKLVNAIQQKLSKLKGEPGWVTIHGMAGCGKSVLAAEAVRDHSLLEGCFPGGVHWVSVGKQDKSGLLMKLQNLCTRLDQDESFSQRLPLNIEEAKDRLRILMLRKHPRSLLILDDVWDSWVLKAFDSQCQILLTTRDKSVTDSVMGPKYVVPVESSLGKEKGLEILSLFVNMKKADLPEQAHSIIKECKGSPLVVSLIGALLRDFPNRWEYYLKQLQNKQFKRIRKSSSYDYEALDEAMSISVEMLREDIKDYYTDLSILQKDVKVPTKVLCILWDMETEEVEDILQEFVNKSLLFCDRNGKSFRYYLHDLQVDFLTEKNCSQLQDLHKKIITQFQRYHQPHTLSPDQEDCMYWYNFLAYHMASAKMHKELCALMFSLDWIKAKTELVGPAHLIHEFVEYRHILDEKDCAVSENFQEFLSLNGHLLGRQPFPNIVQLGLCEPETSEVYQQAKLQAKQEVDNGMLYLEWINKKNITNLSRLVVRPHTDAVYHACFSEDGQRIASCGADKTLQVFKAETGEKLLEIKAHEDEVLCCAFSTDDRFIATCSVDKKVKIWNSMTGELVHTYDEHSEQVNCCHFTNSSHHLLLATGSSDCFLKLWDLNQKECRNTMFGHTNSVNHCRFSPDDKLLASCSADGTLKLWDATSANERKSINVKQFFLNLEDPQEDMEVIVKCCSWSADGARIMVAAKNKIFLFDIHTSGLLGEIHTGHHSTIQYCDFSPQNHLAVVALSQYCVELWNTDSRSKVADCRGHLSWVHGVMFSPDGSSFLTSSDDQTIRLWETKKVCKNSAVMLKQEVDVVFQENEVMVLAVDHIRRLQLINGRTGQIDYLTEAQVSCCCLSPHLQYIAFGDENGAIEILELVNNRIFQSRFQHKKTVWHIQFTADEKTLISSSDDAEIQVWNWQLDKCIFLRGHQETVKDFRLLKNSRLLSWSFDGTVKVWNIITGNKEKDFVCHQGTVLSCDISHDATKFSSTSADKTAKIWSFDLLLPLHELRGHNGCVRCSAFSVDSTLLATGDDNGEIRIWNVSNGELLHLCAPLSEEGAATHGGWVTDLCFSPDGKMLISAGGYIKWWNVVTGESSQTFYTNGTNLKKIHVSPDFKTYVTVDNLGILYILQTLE
The assay can be described thus: SAR analysis of small molecule Activators of Apaf-1 in a Fluorescent assay. The note with it: read-out: EC50_Mean. Type of assay: functional.

Assay [6] is described as follows: AlphaScreen signal interference compounds, dose response, artefact control for ARNT-TACC3 interaction inhibitor project, biochemical, luminescence, cherry-pick (AID 651705).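 Note: AlphaScreen bead proximity signal that flags compounds interfering with the detection technology; potency reflects signal decrease which marks the compound as an assay artifact.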 Type of assay: functional. In general terms: Alpha assays give light when donor and acceptor beads are brought close together.
Assay [7] concerns the target T4, Orexin receptor type 2 (Homo sapiens, UniProt O43614).
T4 sequence (O43614 whole entry): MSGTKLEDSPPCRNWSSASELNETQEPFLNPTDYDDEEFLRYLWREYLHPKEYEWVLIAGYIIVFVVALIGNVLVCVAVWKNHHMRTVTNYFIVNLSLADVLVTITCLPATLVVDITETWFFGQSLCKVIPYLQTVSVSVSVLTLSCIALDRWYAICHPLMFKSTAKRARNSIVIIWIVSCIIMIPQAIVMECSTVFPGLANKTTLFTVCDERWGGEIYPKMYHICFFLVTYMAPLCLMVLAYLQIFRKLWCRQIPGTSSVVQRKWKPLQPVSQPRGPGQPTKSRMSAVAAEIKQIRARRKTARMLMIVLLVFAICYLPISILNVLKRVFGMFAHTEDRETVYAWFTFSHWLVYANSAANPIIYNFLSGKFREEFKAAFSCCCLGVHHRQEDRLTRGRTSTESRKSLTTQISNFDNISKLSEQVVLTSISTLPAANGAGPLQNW
The assay can be described thus: Counterscreen assay for antagonists of the orexin 1 receptor (OX1R; HCRTR1): Homogeneous Time Resolved Fluorescence (HTRF)-based cell-based dose response assay for antagonists of the orexin 2 receptor (OX2R; HCRTR2), run by assay provider. Type of assay: functional.

Assay [8] has as its target T5, Alkaline phosphatase, tissue-nonspecific isozyme (Homo sapiens, UniProt P05186).
T5 sequence (P05186 whole entry): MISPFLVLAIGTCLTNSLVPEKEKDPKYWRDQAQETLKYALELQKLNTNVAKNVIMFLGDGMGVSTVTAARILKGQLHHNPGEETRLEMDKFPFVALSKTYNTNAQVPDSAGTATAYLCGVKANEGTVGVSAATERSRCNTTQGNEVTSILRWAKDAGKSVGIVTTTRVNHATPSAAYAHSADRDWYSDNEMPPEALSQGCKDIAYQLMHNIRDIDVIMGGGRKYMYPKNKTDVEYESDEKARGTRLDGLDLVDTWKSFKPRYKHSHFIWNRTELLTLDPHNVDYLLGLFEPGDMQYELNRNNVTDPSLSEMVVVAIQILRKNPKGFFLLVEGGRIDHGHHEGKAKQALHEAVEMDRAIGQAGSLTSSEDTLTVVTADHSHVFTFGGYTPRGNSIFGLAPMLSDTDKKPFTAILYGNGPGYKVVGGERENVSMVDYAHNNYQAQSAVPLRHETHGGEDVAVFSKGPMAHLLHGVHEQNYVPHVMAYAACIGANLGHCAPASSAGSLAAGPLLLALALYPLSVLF

Assay [9] concerns the target Voltage-gated N-type calcium channel alpha-1B subunit/Amyloid beta A4 precursor protein-binding family A member 1 (Homo sapiens, UniProt Q00975+Q02410). It is filed as protein assay.
For assay [10], the target named is T4, Orexin receptor type 2. The assay can be described thus: Counterscreen assay for antagonists of the orexin 1 receptor (OX1R; HCRTR1): Fluorescence-based cell-based dose response assay for antagonists of the orexin 2 receptor (OX2R; HCRTR2), run by assay provider. It is filed as functional. (In general: A counterscreen serves to expose hits that act by an unwanted route or on another target.)

Assay [11] in a line: Counterscreen for antagonists of the orexin 1 receptor (OX1R; HCRTR1): Fluorescence-based cell-based high throughput dose response assay to identify antagonists of the parental CHO cell line. [Related pubchem assays (depositor defined):AID434989, AID435008, AID463079, AID485270, AID492963, AID492964, AID492965, AID493232, AID504699, AID504701]. Type of assay: functional.
Assay [12] concerns the target T6, Orexin/Hypocretin receptor type 1 (Homo sapiens, UniProt O43613).
T6 sequence (O43613 whole entry): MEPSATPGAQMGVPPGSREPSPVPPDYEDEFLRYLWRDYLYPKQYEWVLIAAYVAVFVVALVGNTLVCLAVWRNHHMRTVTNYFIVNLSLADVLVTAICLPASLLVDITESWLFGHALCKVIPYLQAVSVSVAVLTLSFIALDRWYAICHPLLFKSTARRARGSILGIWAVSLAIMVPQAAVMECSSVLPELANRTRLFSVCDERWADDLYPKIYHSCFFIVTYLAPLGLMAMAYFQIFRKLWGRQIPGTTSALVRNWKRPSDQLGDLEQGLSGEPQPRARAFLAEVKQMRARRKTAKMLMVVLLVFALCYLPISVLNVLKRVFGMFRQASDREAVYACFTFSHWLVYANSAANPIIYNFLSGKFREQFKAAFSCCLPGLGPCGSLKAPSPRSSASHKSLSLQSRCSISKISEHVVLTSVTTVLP
The assay can be described thus: Homogeneous Time Resolved Fluorescence (HTRF)-based cell-based high throughput dose response assay for antagonists of the orexin 1 receptor (OX1R; HCRTR1). [Related pubchem assays (depositor defined):AID434989, AID435008, AID463079, AID485270, AID492963, AID492964, AID492965, AID493232, AID504717, AID504718]. It is filed as functional.

In assay [13] the target is T6, Orexin/Hypocretin receptor type 1. The assay can be described thus: Fluorescence-based cell-based high throughput dose response assay for antagonists of the orexin 1 receptor (OX1R; HCRTR1). [Related pubchem assays (depositor defined):AID434989, AID435008, AID463079, AID485270, AID492963, AID492964, AID492965, AID493232, AID504717, AID504718]. Type of assay: functional.

The subject of another assay is CHO-K1. The assay can be described thus: Counterscreen for antagonists of the orexin 1 receptor (OX1R; HCRTR1): Homogeneous time resolved fluorescence (HTRF)-based cell-based dose response assay to identify antagonists of the parental CHO-K1 cell line. [Related pubchem assays (depositor defined):AID434989, AID435008, AID463079, AID485270, AID492963, AID492964, AID492965, AID493232, AID504699, AID504701]. It is filed as functional. To be noted: Cricetulus griseus.

In assay [14] the target is Ras and Rab interactor 1/Tyrosine-protein kinase ABL1 (Homo sapiens, UniProt P00519+Q13671). Type of assay: functional.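 Note: biochemical TR-FRET dose-response test measuring inhibition of binding between Rin1 and Abl proteins.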
Sequence of Ras and Rab interactor 1/Tyrosine-protein kinase ABL1 (P00519 whole entry): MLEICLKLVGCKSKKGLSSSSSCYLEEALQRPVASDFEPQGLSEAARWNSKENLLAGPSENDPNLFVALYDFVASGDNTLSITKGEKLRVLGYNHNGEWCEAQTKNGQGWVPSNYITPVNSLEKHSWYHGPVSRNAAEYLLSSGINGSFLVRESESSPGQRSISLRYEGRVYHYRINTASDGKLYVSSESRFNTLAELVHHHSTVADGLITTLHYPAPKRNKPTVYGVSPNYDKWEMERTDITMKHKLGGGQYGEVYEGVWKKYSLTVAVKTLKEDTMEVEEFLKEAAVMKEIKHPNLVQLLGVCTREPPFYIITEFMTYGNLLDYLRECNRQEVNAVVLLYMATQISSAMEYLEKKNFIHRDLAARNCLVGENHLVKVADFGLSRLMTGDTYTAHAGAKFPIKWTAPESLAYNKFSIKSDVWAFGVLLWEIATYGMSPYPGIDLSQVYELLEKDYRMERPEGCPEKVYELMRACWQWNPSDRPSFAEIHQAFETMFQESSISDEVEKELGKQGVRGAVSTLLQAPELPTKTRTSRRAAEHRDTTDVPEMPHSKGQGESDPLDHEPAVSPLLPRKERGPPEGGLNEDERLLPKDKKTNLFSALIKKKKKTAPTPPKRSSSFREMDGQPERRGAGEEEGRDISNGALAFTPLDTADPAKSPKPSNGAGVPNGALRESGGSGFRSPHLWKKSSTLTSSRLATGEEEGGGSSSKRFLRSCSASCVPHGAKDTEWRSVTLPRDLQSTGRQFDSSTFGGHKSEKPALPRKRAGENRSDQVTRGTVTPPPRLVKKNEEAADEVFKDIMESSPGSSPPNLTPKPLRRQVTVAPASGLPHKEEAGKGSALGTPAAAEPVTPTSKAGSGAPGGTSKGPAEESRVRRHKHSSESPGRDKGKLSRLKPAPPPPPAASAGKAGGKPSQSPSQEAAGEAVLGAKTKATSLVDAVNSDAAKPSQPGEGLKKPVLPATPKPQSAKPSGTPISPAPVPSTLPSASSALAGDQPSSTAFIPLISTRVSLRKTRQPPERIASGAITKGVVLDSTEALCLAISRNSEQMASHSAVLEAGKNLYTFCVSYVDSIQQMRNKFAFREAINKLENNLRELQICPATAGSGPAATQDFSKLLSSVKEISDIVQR
Sequence of Ras and Rab interactor 1/Tyrosine-protein kinase ABL1 (Q13671 whole entry): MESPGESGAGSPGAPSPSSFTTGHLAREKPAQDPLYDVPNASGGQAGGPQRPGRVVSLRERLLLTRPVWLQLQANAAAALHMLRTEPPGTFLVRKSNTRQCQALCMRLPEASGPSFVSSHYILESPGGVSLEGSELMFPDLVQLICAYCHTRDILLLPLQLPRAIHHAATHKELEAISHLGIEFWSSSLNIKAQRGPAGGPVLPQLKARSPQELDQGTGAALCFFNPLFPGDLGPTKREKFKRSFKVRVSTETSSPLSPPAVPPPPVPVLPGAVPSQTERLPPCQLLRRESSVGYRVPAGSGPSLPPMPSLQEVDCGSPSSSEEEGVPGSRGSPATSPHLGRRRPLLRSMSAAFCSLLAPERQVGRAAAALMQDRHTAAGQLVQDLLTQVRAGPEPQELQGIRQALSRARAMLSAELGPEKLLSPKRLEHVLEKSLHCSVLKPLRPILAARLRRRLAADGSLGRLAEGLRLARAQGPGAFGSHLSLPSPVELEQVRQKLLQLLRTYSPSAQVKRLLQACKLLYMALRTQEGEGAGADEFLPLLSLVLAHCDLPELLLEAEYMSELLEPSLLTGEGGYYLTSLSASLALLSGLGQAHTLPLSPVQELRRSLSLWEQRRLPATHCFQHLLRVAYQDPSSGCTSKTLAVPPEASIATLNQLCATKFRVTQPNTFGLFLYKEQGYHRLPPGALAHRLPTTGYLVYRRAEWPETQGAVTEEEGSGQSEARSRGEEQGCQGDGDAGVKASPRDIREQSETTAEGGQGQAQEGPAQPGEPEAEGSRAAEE
For assay [15], the target named is Mitochondrial peptide methionine sulfoxide reductase (Bos taurus, UniProt P54149). Type of assay: functional.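 Note: absorbance read-out, biochemical high-throughput dose-response screen for MsrA inhibitors, confirmatory; recombinant bovine MsrA coupled to E. coli TrxB with NADPH and selenocystamine; potency is for inhibitors of MsrA activity on DMSO substrate.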
Sequence of Mitochondrial peptide methionine sulfoxide reductase (P54149 whole entry): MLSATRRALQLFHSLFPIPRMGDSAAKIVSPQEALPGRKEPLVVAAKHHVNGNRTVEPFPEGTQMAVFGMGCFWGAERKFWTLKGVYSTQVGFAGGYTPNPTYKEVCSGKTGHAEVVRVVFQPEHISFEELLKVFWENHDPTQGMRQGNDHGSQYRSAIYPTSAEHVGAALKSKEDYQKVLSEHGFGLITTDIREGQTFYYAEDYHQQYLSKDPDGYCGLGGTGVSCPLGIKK
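Throughout, for EC50 Mean: caspase-3 cleavage of fluorogenic Rh110 DEVD substrate downstream of apoptosome activation.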

Consider `Cc1ccc(C=Nn2c(-c3ccco3)n[nH]c2=S)s1`, for which the IC50 in assay [1] was > 99 µM (inactive); in assay [2] it was 85.5 µM (inactive); in assay [3], 2.09 µM (active); in assay [4], 3.67 µM (active).
Regarding `COC(=O)c1coc(-c2cc3ccccc3s2)n1`, the EC50 in [5] was > 100 µM (inactive).
Take `C[C@@H]1CN([C@@H](C)CO)C(=O)c2cc(NC(=O)CCCN(C)C)ccc2O[C@@H](C)CCCCO[C@H]1CN(C)C(=O)Nc1cccc2ccccc12`: the AC50 (as a rule, the midpoint of the concentration-response curve, whichever way the signal moves) in assay [6] was 74.8 µM (active).
With `CCN(CC)c1ccc(NC(=O)Cn2c(C(C)NC(=O)c3ccccc3)nc3ccccc32)cc1` (configuration not stated), the IC50 at Orexin receptor type 2 [7] was > 50 µM (inactive); in [9], > 50 µM (inactive); at Orexin receptor type 2 [10], > 88.8 µM (inactive); in assay [11], > 49.7 µM (inactive); in assay [12], 0.106 µM (active); in [13] it was 0.382 µM (active). Moreover, the IC50 in the assay with CHO-K1 is > 66.2 µM (inactive). Further, the EC50 in [8] is recorded as > 100 µM (not active).
As for `OC[C@@H]1CN(Cc2ccc(-c3ccccc3)cc2)C[C@H](n2cnc3c(NC4CC4)ncnc32)O1`, the IC50 in [14] is 16.9 µM (inactive).
For `Cc1ccc(NC2CCCN(C(=O)c3cn(C)c4ccccc34)C2)cc1C` (configuration not stated), the IC50 on Orexin receptor type 2 [7] was 1.64 µM (active); on Orexin receptor type 2 [10], 7.1 µM (active); in [11], > 49.7 µM (inactive); in assay [12], 0.771 µM (active); in [13], 8.18 µM (active); in the assay with CHO-K1 it was > 66.2 µM (inactive).
As for `O=C(NCc1cccnc1)c1ccc(=O)oc1`, the IC50 in assay [15] was 140 µM (inactive).
